{"source": "paper PMC5799214", "about": "“A Novel Mitochondrial Serine O-Acetyltransferase, OpSAT1, Plays a Critical Role in Sulfur Metabolism in the Thermotolerant Methylotrophic Yeast Ogataea parapolymorpha” (Scientific Reports, 2018)", "key": {"CysE (GST-CysE)": {"target": "T1, CysE (GST-CysE) (Escherichia coli, UniProt P0A9D4)", "T1 construct": "template plasmid pCysE", "T1 sequence (P0A9D4 2-273)": "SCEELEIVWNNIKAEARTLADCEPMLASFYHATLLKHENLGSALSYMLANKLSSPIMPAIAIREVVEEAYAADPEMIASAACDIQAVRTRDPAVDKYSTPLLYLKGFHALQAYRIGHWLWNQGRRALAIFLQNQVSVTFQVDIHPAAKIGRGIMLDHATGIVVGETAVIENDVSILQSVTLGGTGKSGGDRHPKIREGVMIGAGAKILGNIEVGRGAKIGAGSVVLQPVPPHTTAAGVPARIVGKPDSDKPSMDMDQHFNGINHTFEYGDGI", "test": "SAT activity, decrease of OD232 (acetyl-CoA consumption)", "type": "biochemical", "conditions": "read-out: % residual activity at 1 μM"}, "OpSat1p (GST-OpSat1p)": {"target": "T2, OpSat1p (GST-OpSat1p) (Ogataea parapolymorpha, UniProt W1Q867)", "T2 construct": "gene HPODL_02797; alpha/beta hydrolase 1 domain", "T2 sequence (W1Q867 2-499)": "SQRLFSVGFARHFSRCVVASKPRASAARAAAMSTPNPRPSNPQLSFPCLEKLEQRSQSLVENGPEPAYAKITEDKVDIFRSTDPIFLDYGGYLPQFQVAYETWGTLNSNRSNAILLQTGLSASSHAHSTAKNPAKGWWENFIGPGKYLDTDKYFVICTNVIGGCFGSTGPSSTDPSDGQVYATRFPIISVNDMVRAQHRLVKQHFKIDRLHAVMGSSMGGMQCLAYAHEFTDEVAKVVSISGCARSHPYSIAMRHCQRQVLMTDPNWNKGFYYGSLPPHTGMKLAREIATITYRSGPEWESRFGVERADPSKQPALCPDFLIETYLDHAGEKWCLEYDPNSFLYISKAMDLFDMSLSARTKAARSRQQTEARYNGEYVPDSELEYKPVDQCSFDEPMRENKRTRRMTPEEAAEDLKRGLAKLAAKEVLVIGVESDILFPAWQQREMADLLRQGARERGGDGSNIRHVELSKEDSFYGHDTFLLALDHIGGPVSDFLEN", "test": "SAT activity, decrease of OD232 (acetyl-CoA consumption)", "type": "biochemical", "conditions": "read-out: concentration of cysteine at 50% inhibition"}}, "note": "pIC50: −log10 of the molar value."}
{"compound": "N[C@@H](CS)C(=O)O", "note": "[L-cysteine]", "values": [{"measurement": "remaining activity at 1 µM", "setting": "CysE (GST-CysE)", "value": "~40", "unit": "%"}, {"measurement": "pIC50", "setting": "OpSat1p (GST-OpSat1p)", "value": "~3.60"}]}
